Key:
[1] = biological target: T1, beta-lactamase from Enterobacter cloacae (Enterobacter cloacae, UniProt P05364); experiment: Assay (I) for beta-lactamase activity, Cefesone hydrolysis (product inhibition); format: biochemical; settings: reaction continued for two hours; theoretical maximal absorbance approximately 1.6; said to be consistent with product inhibition
T1 construct: purchased Sigma-Aldrich
Protocol: A chromogenic cephalosporin, Cefesone, is synthesized and isolated, for example, as described by Sutton et al. International Application WO 2009/049086 and used to monitor p-lactamase activity. A typical assay monitors the hydrolysis of Cefesone via the formation of a species which absorbs at 486 nm (molar absorptivity constant 16,000). Absorption is monitored as a function of time in 0.1 M, pH 7.0 sodium phosphate, 0.2 mM Cefesone and 4 volume percent DMSO cosolvent at 30° C. using a Beckman DU-40 spectrophotometer having a circulating water bath attached to the cuvette holder. The assay is initiated by addition and mixing of an appropriate amount of beta-lactamase.
The beta-lactamase assay using enzyme fro Enterobacter cloacae (Sigma-Aldrich, St. Louis, Mo.) was carried out as in Example 2 (assay I) above with compound 2. After the initial rate was determined the reaction was allowed to continue for two hours. Theoretical maximal absorbance at 486 nm is approximately 1.6 while the observed final absorbance was consistently 0.26.

[2] = biological target: T1, beta-lactamase from Enterobacter cloacae; experiment: Time dependent inhibition of beta-lactamase, with dialysis to test for return of activity; format: biochemical; settings: 10 mL 0.1 units/mL beta-lactamase with 500 microM inhibitor, dialysed against 1 L 0.1 M sodium phosphate buffer (pH 7.0), one exchange

T1 sequence (P05364 21-381): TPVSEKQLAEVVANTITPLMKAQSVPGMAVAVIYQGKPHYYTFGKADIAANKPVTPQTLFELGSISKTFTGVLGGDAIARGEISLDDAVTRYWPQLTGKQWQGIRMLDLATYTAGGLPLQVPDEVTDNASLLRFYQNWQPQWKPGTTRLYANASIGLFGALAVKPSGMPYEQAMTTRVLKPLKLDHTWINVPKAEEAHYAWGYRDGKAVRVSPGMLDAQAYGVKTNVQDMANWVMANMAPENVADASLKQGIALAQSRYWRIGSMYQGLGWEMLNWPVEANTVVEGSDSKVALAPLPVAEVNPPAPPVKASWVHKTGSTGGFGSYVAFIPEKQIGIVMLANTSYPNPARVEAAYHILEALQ

What does the source list for `O=C(Cc1ccccc1)NC1C(=O)N2C(C(=O)O)=C(/C=C/C3CC3)CSC12` (stereo not drawn) [compound 2, 3-vinylcyclopropane-7-(2-phenylacetamido)-3-Cephem-4-carboxylic acid]?
observed final absorbance at 486 nm [1]: 0.26; return of beta-lactamase activity after dialysis [2]: no return of activity

For `O=C(Cc1ccccc1)NC1C(=O)N2C(C(=O)O)=C(/C=C/c3ccc(CBr)cc3)CSC12` (stereo not drawn) [compound 4, 3-(1-bromomethyl-4-vinylbenzene)-7-(2-phenylacetamido)-3-Cephem-4-carboxylic acid], which “return of beta-lactamase activity after dialysis” value [2] is on record?
The value was “no return of activity”.

From patent US20100261700A1, “BETA-LACTAMASE INHIBITORS” (priority 2009, published 2010)
